As usually defined, the mass density is mass per unit of volume.

Each structure is given as a SMILES string. Numbers after ± are expanded uncertainties.

For this data set the following is noted: 298.15 K; 101.33 kPa; Liquid; Pycnometric method.
Turning to `Cc1ccccc1C` [1,2-dimethylbenzene], the mass density is recorded as 875.99 ± 5.6 kg/m3. Regarding `Cc1ccc(C)cc1` [1,4-dimethylbenzene], the mass density is 856.58 ± 5.3 kg/m3. In the case of `Cc1ccccc1` [toluene], the mass density came out at 862.21 ± 5.4 kg/m3.

The record behind these values is the NIST ThermoML archive (doi:10.1007/s10765-010-0717-9).
